Key:
[1] = test system: barnyardgrass; experiment: Test A pre-/postemergence greenhouse test; format: in vivo, Echinochloa crus-galli; conditions: for Plant response rating, Barnyardgrass: 0 to 100 scale where 0 is no effect and 100 is complete control; for Barnyardgrass plant response rating: 0 to 100 scale
Summary of the method: (§1)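 Each test compound, dissolved in a non-phytotoxic solvent mixture with surfactant, was sprayed directly onto seeded soil (loam/sand blend) and, at the same moment, onto seedlings carrying one to two leaves. Around ten greenhouse days later, plants were rated visually for injury relative to untreated controls.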

[2] = test system: broadleaf signalgrass; experiment: Test F preemergence test; format: in vivo, Brachiaria platyphylla; conditions: scale 0 to 100; for Signalgrass plant response rating: 125 g ai/ha
Summary of the method: (§2)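 Compounds in a non-phytotoxic solvent formulation with surfactant were applied before emergence after sowing, or, for sugarcane, also postemergence. Evaluation was visual, against controls, after 14 to 21 greenhouse days.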

[3] = test system: kochia; experiment: Test F preemergence test; format: in vivo, Kochia scoparia; conditions: scale 0 to 100
Summary of the method: as §2

[4] = test system: johnsongrass; experiment: Test F preemergence test; format: in vivo, Sorghum halepense; conditions: scale 0 to 100
Summary of the method: as §2

[5] = test system: velvetleaf; experiment: Test A pre-/postemergence greenhouse test; format: in vivo, Abutilon theophrasti; conditions: for Plant response rating, Velvetleaf: 0 to 100 scale where 0 is no effect and 100 is complete control; for Velvetleaf plant response rating: 0 to 100 scale
Summary of the method: as §1

[6] = test system: common groundsel; experiment: Test F preemergence test; format: in vivo, Senecio vulgaris; conditions: scale 0 to 100
Summary of the method: as §2

[7] = test system: itchgrass; experiment: Test F preemergence test; format: in vivo, Rottboellia cochinchinensis; conditions: scale 0 to 100
Summary of the method: as §2

[8] = test system: Italian ryegrass; experiment: Test C pre-/postemergence test; format: in vivo, Lolium multiflorum
Summary of the method: (§3)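 Test chemicals were formulated with surfactant in a non-phytotoxic solvent and sprayed both on freshly planted seeds (preemergence) and on 1- to 4-leaf plants of 2–18 cm (postemergence). Flooded-paddy pots received compound directly into 3 cm of standing water, maintained for the test.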

[9] = test system: green foxtail; experiment: Test C pre-/postemergence test; format: in vivo, Setaria viridis
Summary of the method: as §3

[10] = test system: dallisgrass; experiment: Test F preemergence test; format: in vivo, Paspalum dilatatum; conditions: scale 0 to 100
Summary of the method: as §2

[11] = test system: Virginia dayflower; experiment: Test F preemergence test; format: in vivo, Commelina virginica; conditions: scale 0 to 100
Summary of the method: as §2

[12] = test system: Russian thistle; experiment: Test C pre-/postemergence test; format: in vivo, Salsola kali; conditions: for Plant response rating, Russian Thistle: 31 g ai/ha, scale 0 to 100 (0 no effect, 100 complete control)
Summary of the method: as §3

[13] = test system: purple nutsedge; experiment: Test F preemergence test; format: in vivo, Cyperus rotundus; conditions: scale 0 to 100
Summary of the method: as §2

[14] = test system: goosegrass; experiment: Test F preemergence test; format: in vivo, Eleusine indica; conditions: scale 0 to 100
Summary of the method: as §2

[15] = Postemergence, 500 g ai/ha, 0 is no effect, 100 is complete control
[16] = Preemergence, 125 g ai/ha, 0 no effect, 100 complete control
[17] = 62 g ai/ha, Preemergence, scale 0 to 100
[18] = 125 g ai/ha, preemergence, scale 0 (no effect) to 100 (complete control)
[19] = Postemergence, 125 g ai/ha, scale 0 to 100, 0 no effect, 100 complete control
[20] = Postemergence, 250 g ai/ha, scale 0 to 100, 0 no effect, 100 complete control
[21] = Preemergence, 31 g ai/ha, scale 0 to 100 (0 no effect, 100 complete control)
[22] = preemergence, 250 g ai/ha, scale 0 (no effect) to 100 (complete control)

## Cn1nc(C(F)(F)F)c(C[S+]([O-])c2ccc(Cl)c[n+]2[O-])c1OCC(F)(F)F (racemic) [Compound 62]
[1]; Postemergence, 125 g ai/ha
  Plant response rating, Barnyardgrass: 80
[1]; [15]
  Barnyardgrass plant response rating: 90
[1]; [16]
  Barnyardgrass plant response rating: 90
[1]; Preemergence, 500 g ai/ha
  Plant response rating, Barnyardgrass: 100
[2]; 16 g ai/ha, preemergence
  Plant response rating, Signalgrass: 40
[2]; preemergence
  Signalgrass plant response rating: 95
[2]; Preemergence, 62 g ai/ha
  Plant response rating, Signalgrass: 75
[2]; Preemergence, 31 g ai/ha
  Plant response rating, Signalgrass: 40
[3]; 16 g ai/ha, preemergence
  Plant response rating, Kochia: 0
[3]; 62 g ai/ha, Preemergence
  Kochia plant response rating: 15
[3]; 125 g ai/ha, preemergence
  Kochia plant response rating: 100
[3]; Preemergence, 31 g ai/ha
  Plant response rating, Kochia: 0
[4]; 16 g ai/ha, preemergence
  Plant response rating, Johnsongrass: 20
[4]; 62 g ai/ha, Preemergence
  Johnsongrass plant response rating: 100
[4]; 125 g ai/ha, preemergence
  Johnsongrass plant response rating: 100
[4]; Preemergence, 31 g ai/ha
  Plant response rating, Johnsongrass: 80
[5]; Postemergence, 125 g ai/ha
  Plant response rating, Velvetleaf: 60
[5]; [15]
  Velvetleaf plant response rating: 90
[5]; [16]
  Velvetleaf plant response rating: 100
[5]; Preemergence, 500 g ai/ha
  Plant response rating, Velvetleaf: 100
[6]; 16 g ai/ha, preemergence
  Plant response rating, Groundsel: 0
[6]; 62 g ai/ha, Preemergence
  Groundsel plant response rating: 80
[6]; 125 g ai/ha, preemergence
  Groundsel plant response rating: 90
[6]; Preemergence, 31 g ai/ha
  Plant response rating, Groundsel: 70
[7]; 16 g ai/ha, preemergence
  Plant response rating, Itchgrass: 50
[7]; 62 g ai/ha, Preemergence
  Itchgrass plant response rating: 90
[7]; 125 g ai/ha, preemergence
  Itchgrass plant response rating: 98
[7]; Preemergence, 31 g ai/ha
  Plant response rating, Itchgrass: 75
[8]; [17]
  Ryegrass, Italian plant response rating: 85
[8]; [18]
  Ryegrass, Italian plant response rating: 90
[8]; Postemergence, 31 g ai/ha
  Plant response rating (0 to 100), Ryegrass, Italian: 0
[8]; Postemergence, 62 g ai/ha
  Plant response rating (0 to 100), Ryegrass, Italian: 0
[8]; [19]
  Plant response rating, Ryegrass, Italian: 80
[8]; [20]
  Plant response rating, Ryegrass, Italian: 90
[8]; [21]
  Plant response rating, Ryegrass, Italian: 70
[8]; [22]
  Ryegrass, Italian plant response rating: 100
[9]; [17]
  Foxtail, Green plant response rating: 100
[9]; [18]
  Foxtail, Green plant response rating: 100
[9]; Postemergence, 31 g ai/ha
  Plant response rating (0 to 100), Foxtail, Green: 0
[9]; Postemergence, 62 g ai/ha, scale 0 to 100, 0 no effect, 100 complete control
  Plant response rating, Foxtail, Green: 20
[9]; [19]
  Plant response rating, Foxtail, Green: 40
[9]; [20]
  Plant response rating, Foxtail, Green: 80
[9]; [21]
  Plant response rating, Foxtail, Green: 80
[9]; [22]
  Foxtail, Green plant response rating: 100
[10]; 16 g ai/ha, preemergence
  Plant response rating, Dallisgrass: 0
[10]; 62 g ai/ha, Preemergence
  Dallisgrass plant response rating: 98
[10]; 125 g ai/ha, preemergence
  Dallisgrass plant response rating: 98
[10]; Preemergence, 31 g ai/ha
  Plant response rating, Dallisgrass: 60
[11]; 16 g ai/ha, preemergence
  Plant response rating, Dayflower: 0
[12]; [17]
  Russian Thistle plant response rating: 100
[12]; [18]
  Russian Thistle plant response rating: 100
[12]; Preemergence
  Plant response rating, Russian Thistle: 100
[12]; [22]
  Russian Thistle plant response rating: 100
[13]; 16 g ai/ha, preemergence
  Plant response rating, Purple Nutsedge: 0
[13]; 62 g ai/ha, Preemergence
  Purple Nutsedge plant response rating: 65
[13]; 125 g ai/ha, preemergence
  Purple Nutsedge plant response rating: 75
[13]; Preemergence, 31 g ai/ha
  Plant response rating, Purple Nutsedge: 35
[14]; 16 g ai/ha, preemergence
  Plant response rating, Goosegrass: 50
[14]; 62 g ai/ha, Preemergence
  Goosegrass plant response rating: 98
[14]; 125 g ai/ha, preemergence
  Goosegrass plant response rating: 100
[14]; Preemergence, 31 g ai/ha
  Plant response rating, Goosegrass: 65

## CC(Oc1c(C[S+]([O-])c2ccc(Cl)c[n+]2[O-])c(C(F)(F)F)nn1C)C(F)(F)F (centres unmarked) [Compound 87]
[1]; Postemergence, 125 g ai/ha
  Plant response rating, Barnyardgrass: 80
[1]; [15]
  Barnyardgrass plant response rating: 90
[1]; [16]
  Barnyardgrass plant response rating: 90
[1]; Preemergence, 500 g ai/ha
  Plant response rating, Barnyardgrass: 100
[2]; 16 g ai/ha, preemergence
  Plant response rating, Signalgrass: 0
[2]; preemergence
  Signalgrass plant response rating: 95
[2]; Preemergence, 62 g ai/ha
  Plant response rating, Signalgrass: 65
[2]; Preemergence, 31 g ai/ha
  Plant response rating, Signalgrass: 15
[3]; 16 g ai/ha, preemergence
  Plant response rating, Kochia: 0
[3]; 125 g ai/ha, preemergence
  Kochia plant response rating: 50
[3]; Preemergence, 62 g ai/ha
  Plant response rating, Kochia: 50
[3]; Preemergence, 31 g ai/ha
  Plant response rating, Kochia: 0
[4]; 16 g ai/ha, preemergence
  Plant response rating, Johnsongrass: 40
[4]; 125 g ai/ha, preemergence
  Johnsongrass plant response rating: 100
[4]; Preemergence, 62 g ai/ha
  Plant response rating, Johnsongrass: 95
[4]; Preemergence, 31 g ai/ha
  Plant response rating, Johnsongrass: 75
[5]; Postemergence, 125 g ai/ha
  Plant response rating, Velvetleaf: 70
[5]; [15]
  Velvetleaf plant response rating: 80
[5]; [16]
  Velvetleaf plant response rating: 80
[5]; Preemergence, 500 g ai/ha, 0 no effect, 100 complete control
  Velvetleaf plant response rating: 100
[6]; 16 g ai/ha, preemergence
  Plant response rating, Groundsel: 0
[6]; 125 g ai/ha, preemergence
  Groundsel plant response rating: 65
[6]; Preemergence, 62 g ai/ha
  Plant response rating, Groundsel: 0
[6]; Preemergence, 31 g ai/ha
  Plant response rating, Groundsel: 0
[7]; 16 g ai/ha, preemergence
  Plant response rating, Itchgrass: 35
[7]; 125 g ai/ha, preemergence
  Itchgrass plant response rating: 100
[7]; Preemergence, 62 g ai/ha
  Plant response rating, Itchgrass: 100
[7]; Preemergence, 31 g ai/ha
  Plant response rating, Itchgrass: 85
[8]; [17]
  Ryegrass, Italian plant response rating: 95
[8]; [18]
  Ryegrass, Italian plant response rating: 100
[8]; [21]
  Plant response rating, Ryegrass, Italian: 95
[8]; [22]
  Ryegrass, Italian plant response rating: 100
[9]; [17]
  Foxtail, Green plant response rating: 100
[9]; [18]
  Foxtail, Green plant response rating: 100
[9]; [21]
  Plant response rating, Foxtail, Green: 95
[9]; [22]
  Foxtail, Green plant response rating: 100
[10]; 16 g ai/ha, preemergence
  Plant response rating, Dallisgrass: 0
[10]; 125 g ai/ha, preemergence
  Dallisgrass plant response rating: 80
[10]; Preemergence, 62 g ai/ha
  Plant response rating, Dallisgrass: 60
[10]; Preemergence, 31 g ai/ha
  Plant response rating, Dallisgrass: 50
[11]; 16 g ai/ha, preemergence
  Plant response rating, Dayflower: 35
[11]; 125 g ai/ha, preemergence
  Dayflower plant response rating: 100
[11]; Preemergence, 62 g ai/ha
  Plant response rating, Dayflower: 100
[11]; Preemergence, 31 g ai/ha
  Plant response rating, Dayflower: 100
[12]; [17]
  Russian Thistle plant response rating: 100
[12]; [18]
  Russian Thistle plant response rating: 100
[12]; Preemergence
  Plant response rating, Russian Thistle: 100
[12]; [22]
  Russian Thistle plant response rating: 100
[13]; 125 g ai/ha, preemergence
  Purple Nutsedge plant response rating: 80
[13]; Preemergence, 62 g ai/ha
  Plant response rating, Purple Nutsedge: 70
[13]; Preemergence, 31 g ai/ha
  Plant response rating, Purple Nutsedge: 60
[14]; 16 g ai/ha, preemergence
  Plant response rating, Goosegrass: 70
[14]; 125 g ai/ha, preemergence
  Goosegrass plant response rating: 100
[14]; Preemergence, 62 g ai/ha
  Plant response rating, Goosegrass: 95
[14]; Preemergence, 31 g ai/ha
  Plant response rating, Goosegrass: 80

— patent US20100298141A1, “SUBSTITUTED PYRIDINE N-OXIDE HERBICIDES” (E. I. DU PONT DE NEMOURS AND COMPANY, priority 2007, published 2010)
